Some test systems named below: U251 CNS; MALME-3M melanoma; OVCAR-8 ovarian; UACC-62 melanoma; NCI-H226 lung; SK-MEL-28 melanoma; DMS 114 small cell lung; COLO 205 colon; LOX IMVI melanoma; HL-60(TB) leukemia; K-562 leukemia; M14 melanoma; SF-295 CNS; KM12 colon; SN12C renal; MOLT-4 leukemia; UACC-257 melanoma; A498 renal; PC-3 prostate; NCI/ADR-RES ovarian.
Holding throughout (test): inhibition of tumour cell growth, NCI panel, 48 h

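1) Cells in 96-well plates. 2) Compound, 48 h, 5 concentrations. 3) Linear interpolation between surrounding doses. 4) Unreached endpoint = highest concentration. At the TGI there is no net growth.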 Bounds are passed on as bounds.

On to `COc1ccccc1C1C(Cl)C(=O)N1n1cnc2ccccc2c1=O` (stereo not drawn), for which the TGI with U251 CNS, with MALME-3M melanoma, in the test with OVCAR-8 ovarian, in the test on UACC-62 melanoma, with NCI-H226 lung and with SK-MEL-28 melanoma was greater than 100 µM throughout. In addition, the TGI with DMS 114 small cell lung, in the test with COLO 205 colon, in the test with LOX IMVI melanoma, in the test with HL-60(TB) leukemia, with K-562 leukemia and with M14 melanoma was greater than 100 µM each time. The TGI with SF-295 CNS, in the test on KM12 colon, with SN12C renal, in the test on MOLT-4 leukemia and with UACC-257 melanoma was greater than 100 µM in each case.
`Cc1[nH]c(=O)nc2c1C(NCCCN(C)C)c1cc(Cl)ccc1N2` (stereo not drawn): the TGI stood at 29.3 µM with U251 CNS; 30.3 µM in the test with MALME-3M melanoma; 28.7 µM in the test on OVCAR-8 ovarian; 26.2 µM with UACC-62 melanoma; 31 µM in the test with NCI-H226 lung; 27.2 µM in the test on SK-MEL-28 melanoma. In addition, the TGI in the test with DMS 114 small cell lung was found to be 28.2 µM; in the test with COLO 205 colon, 26 µM; in the test with LOX IMVI melanoma it was 24.5 µM; in the test with HL-60(TB) leukemia, 34.4 µM; in the test on K-562 leukemia it was 26.9 µM; in the test with M14 melanoma, 21.3 µM. The TGI in the test on SF-295 CNS is 30.7 µM; in the test on KM12 colon, 30.3 µM; in the test on SN12C renal it was 28.2 µM; in the test on MOLT-4 leukemia, 44.6 µM; with UACC-257 melanoma it was 26 µM.
Turning to `NC1=NC2=c3ccccc3=C(c3cnccn3)C2(c2cnccn2)c2ccccc21` (stereo not drawn), the TGI in the test with U251 CNS, in the test with MALME-3M melanoma, in the test on OVCAR-8 ovarian, with UACC-62 melanoma, in the test with NCI-H226 lung and in the test with SK-MEL-28 melanoma was greater than 100 µM throughout. Besides, the TGI in the test with DMS 114 small cell lung, in the test with COLO 205 colon, in the test on LOX IMVI melanoma, in the test with HL-60(TB) leukemia, in the test on K-562 leukemia and in the test on M14 melanoma was greater than 100 µM throughout. In addition, the TGI with SF-295 CNS is greater than 100 µM; with A498 renal it was 69.1 µM; in the test with KM12 colon it was greater than 100 µM; with SN12C renal it was greater than 100 µM; in the test on MOLT-4 leukemia, 95.8 µM; in the test on UACC-257 melanoma, greater than 100 µM.
As to `Cc1sc2[nH]c(=O)oc(=O)c2c1C`, the TGI in the test with PC-3 prostate, with U251 CNS, in the test with MALME-3M melanoma, in the test on OVCAR-8 ovarian, in the test with UACC-62 melanoma and with NCI-H226 lung was greater than 100 µM in each case. The TGI in the test on SK-MEL-28 melanoma, with COLO 205 colon, with LOX IMVI melanoma, in the test with HL-60(TB) leukemia, with K-562 leukemia and in the test on M14 melanoma was greater than 100 µM each time. In addition, the TGI in the test with SF-295 CNS was greater than 100 µM; in the test on A498 renal, greater than 100 µM; with NCI/ADR-RES ovarian it was greater than 100 µM; in the test with KM12 colon, greater than 93.3 µM; with SN12C renal, greater than 100 µM; in the test with MOLT-4 leukemia it was greater than 100 µM. Further, in the test on UACC-257 melanoma, the TGI was greater than 100 µM.
As for `CC(C)(C)OC(=O)N[C@H]1CC(O)c2ccccc2N(CC(=O)O)C1=O` (stereo partly drawn), the TGI in the test on MALME-3M melanoma, in the test with OVCAR-8 ovarian, in the test on UACC-62 melanoma, in the test on NCI-H226 lung, with SK-MEL-28 melanoma and in the test on DMS 114 small cell lung was greater than 100 µM each time. The TGI in the test with COLO 205 colon, in the test on LOX IMVI melanoma, with HL-60(TB) leukemia, with M14 melanoma, in the test on SF-295 CNS and with KM12 colon was greater than 100 µM each time. Besides, the TGI in the test on SN12C renal, with MOLT-4 leukemia and with UACC-257 melanoma was greater than 100 µM in each case.
For `C=CCc1[nH]c2c(OCc3ccccc3)cc(N(CC=C)C(C)=O)cc2c1C`, the TGI in the test on PC-3 prostate was determined as 20.2 µM; with U251 CNS, 25.3 µM; in the test on MALME-3M melanoma, 30.4 µM; with OVCAR-8 ovarian, 27.4 µM; in the test on UACC-62 melanoma, 26.9 µM; in the test with NCI-H226 lung, 37.2 µM. Moreover, the TGI with SK-MEL-28 melanoma is 33.5 µM; with COLO 205 colon, 30.1 µM; in the test on LOX IMVI melanoma, 25 µM; with HL-60(TB) leukemia, 39.9 µM; in the test with K-562 leukemia, greater than 100 µM; with M14 melanoma it was 21.8 µM. Further, the TGI in the test on SF-295 CNS was determined as 33.5 µM; in the test with A498 renal it was 25 µM; in the test with NCI/ADR-RES ovarian it was 31 µM; in the test on KM12 colon, 30.1 µM; with SN12C renal, 32 µM; in the test on MOLT-4 leukemia, 30.7 µM. Further, in the test with UACC-257 melanoma, the TGI amounted to 30.6 µM.
Take `CCN(CC)CCC(=O)c1ccc(Sc2ccc(F)cc2)cc1`: the TGI in the test with PC-3 prostate is 33.6 µM; in the test with U251 CNS, 31.1 µM; with MALME-3M melanoma, 33.4 µM; in the test on OVCAR-8 ovarian it was 48.1 µM; in the test on UACC-62 melanoma, 31.1 µM; in the test with NCI-H226 lung it was 39.2 µM. Also, the TGI with SK-MEL-28 melanoma was 34.3 µM; in the test on COLO 205 colon, 41.9 µM; in the test with LOX IMVI melanoma it was 37.2 µM; in the test on HL-60(TB) leukemia it was 50.5 µM; in the test with K-562 leukemia, greater than 100 µM; in the test with M14 melanoma, 54.6 µM. The TGI in the test on SF-295 CNS turned out to be 35.1 µM; in the test with A498 renal it was 45.7 µM; in the test with NCI/ADR-RES ovarian it was 71.1 µM; in the test with KM12 colon, 30.6 µM; with SN12C renal, 46.8 µM; with MOLT-4 leukemia, 33.5 µM. For the same compound, the TGI with UACC-257 melanoma was found to be 31 µM.
As for `COc1ccc(OC)c(CSc2ccc(OC)c(OC)c2)c1`, the TGI with PC-3 prostate, with U251 CNS, in the test with MALME-3M melanoma, in the test on OVCAR-8 ovarian, in the test with UACC-62 melanoma and in the test with NCI-H226 lung was greater than 100 µM in each case. Also, the TGI in the test on SK-MEL-28 melanoma, in the test with COLO 205 colon, in the test on LOX IMVI melanoma, in the test on HL-60(TB) leukemia, with K-562 leukemia and with M14 melanoma was greater than 100 µM each time. The TGI in the test on SF-295 CNS is greater than 100 µM; in the test with A498 renal it was 99.3 µM; with NCI/ADR-RES ovarian it was greater than 100 µM; in the test on KM12 colon, greater than 100 µM; in the test with SN12C renal it was greater than 100 µM; in the test with MOLT-4 leukemia, greater than 100 µM. The compound also registered a TGI in the test on UACC-257 melanoma greater than 100 µM.
